Reference: US20030229087A1 (priority 2002, published 2003)

What was measured:
Assay type in all cases: in vivo
[1] = tested on: Erysiphe graminis f.sp. hordei; test: Erysiphe test (barley)/protective; conditions: Blumeria graminis, 168 h, protective, application rate 12.5 g/ha, evaluation 7 days after inoculation, read-out: Efficacy in %
Method: Erysiphe Test (Barley)/Protective
(§1) To produce a suitable preparation of active compound, 1 part by weight of active compound or active compound combination is mixed with the stated amounts of solvent and emulsifier, and the concentrate is diluted with water to the desired concentration.
(§2) To test for protective activity, young plants are sprayed with the preparation of active compound at the stated application rate.
After the spray coating has dried on, the plants are dusted with spores of Erysiphe graminis f.sp. hordei.
(§3) The plants are placed in a greenhouse at a temperature of approximately 20° C. and a relative atmospheric humidity of approximately 80% to promote the development of mildew postules.
(§4) Evaluation is carried out 7 days after the inoculation. 0% means an efficacy which corresponds to that of the control, whereas an efficacy of 100% means that no infection is observed.

Sphaerotheca fuliginea = test: whole plant or invertebrate; conditions: Podosphaera fuliginea, in Cucumis sativus, 240 h, read-out: % Efficacy
Phytophthora infestans = test: whole plant or invertebrate; conditions: Phytophthora infestans, in Solanum lycopersicum, 72 h, read-out: % Efficacy
Pyrenophora teres = Pyrenophora teres test (barley)/protective; conditions: protective, application rate 25 g/ha, evaluation 7 days after inoculation
Method: Pyrenophora teres Test (Barley)/Protective
as §1
(§5) To test for protective activity, young plants are sprayed with the preparation of active compound at the stated application rate. After the spray coating has dried on, the plants are sprayed with a conidia suspension of Pyrenophora teres. The plants remain in an incubation cabin at 20° C. and 100% relative atmospheric humidity for 48 hours.
The plants are then placed in a greenhouse at a temperature of approximately 20° C. and a relative atmospheric humidity of approximately 80%.
as §4

[2] = tested on: Erysiphe graminis f.sp. tritici; test: Erysiphe test (wheat)/protective; conditions: protective, application rate 6.25 g/ha, evaluation 7 days after inoculation
Method: Erysiphe Test (Wheat)/Protective
as §1, §2
After the spray coating has dried on, the plants are dusted with spores of Erysiphe graminis f.sp. tritici.
as §3, §4

Leptosphaeria nodorum = Leptosphaeria nodorum test (wheat)/protective; conditions: protective, application rate 25 g/ha, evaluation 10 days after inoculation
Method: Leptosphaeria nodorum Test (Wheat)/Protective
To produce a suitable preparation of active compound, 1 part by weight of active compound or active compound combination is mixed with the stated amounts of solvents and emulsifier, and the concentrate is diluted with water to the desired concentration.
as §5, with “spore” for “conidia”, “Leptosphaeria nodorum.” for “Pyrenophora teres.”
The plants are placed in a greenhouse at a temperature of approximately 15° C. and a relative atmospheric humidity of 80%.
Evaluation is carried out 10 days after the inoculation. 0% means an efficacy which corresponds to that of the control, whereas an efficacy of 100% means that no infection is observed.

Question: Which pest or weed control at 12.5 g/ha [1] does the source give for `N#Cc1c[nH]cc1-c1cccc2c1OC(F)(F)O2` [fludioxonil (XXX) (29), fludioxonil] here?
Answer: 0%

Question: What about the pest or weed control at 2.5 g/ha (Sphaerotheca fuliginea) of the same molecule?
Answer: 0%

Question: What does the source list for `CNC(=O)/C(=N/OC)c1ccccc1Oc1ncnc(Oc2cccc(Cl)c2C)c1F` [Compound of the formula (I), (2E/Z)-2-(2-{[6-(3-chloro-2-methylphenoxy)-5-fluoro-4-pyrimidinyl]oxy}phenyl)-2-(methoxyimino)-N-methylethanamide]?
Answer: pest or weed control at 12.5 g/ha [1]: 80%; pest or weed control at 0.5 g/ha (Phytophthora infestans): 32%; pest or weed control at 1 g/ha (Phytophthora infestans): 60%; pest or weed control at 2 g/ha (Phytophthora infestans): 72%; pest or weed control at 0.5 g/ha (Sphaerotheca fuliginea): 30%; pest or weed control at 1 g/ha (Sphaerotheca fuliginea): 69%; Efficacy in % (Pyrenophora teres): 60%; Efficacy in % [2]: 0%; Efficacy in % (Leptosphaeria nodorum): 60%

Question: How did the pest or weed control at 5 g/ha (Phytophthora infestans) turn out when `CC1COC(Cn2cncn2)(c2ccc(Oc3ccc(Cl)cc3)cc2Cl)O1` (stereo not drawn) [difenoconazole] was run?
Answer: 5%

Question: What about the pest or weed control at 5 g/ha (Sphaerotheca fuliginea) of the same molecule?
Answer: 14%

Question: What does the source list for `OC(Cc1ccccc1Cl)(Cn1nc[nH]c1=S)C1(Cl)CC1` (stereo not drawn) [Compound of the formula (LXX) (69), 2-(1-chloro-cyclopropyl)-1-(2-chlorophenyl)-3-(5-mercapto-1,2,4-triazol-1-yl)-propan-2-ol]?
Answer: pest or weed control at 12.5 g/ha [1]: 90%; pest or weed control at 5 g/ha (Phytophthora infestans): 0%; Efficacy in % (Pyrenophora teres): 70%

Question: `Cc1cc(C2CC2)nc(Nc2ccccc2)n1` [cyprodinil (XVIII) (17), cyprodinil] was tested. Which pest or weed control at 12.5 g/ha [1] did it give?
Answer: 0%

Question: And the pest or weed control at 10 g/ha (Sphaerotheca fuliginea)?
Answer: 22%

Question: And the Efficacy in % (Pyrenophora teres)?
Answer: 0%

Question: `CO/N=C(/C1=NOCCO1)c1ccccc1Oc1ncnc(Oc2ccccc2Cl)c1F` [Compound of the formula (LXXII) (71)] was tested. Which pest or weed control at 12.5 g/ha [1] did it give?
Answer: 0%

Question: What about the pest or weed control at 2 g/ha (Sphaerotheca fuliginea) of the same molecule?
Answer: 43%

Question: What about the Efficacy in % (Leptosphaeria nodorum) of the same molecule?
Answer: 40%

Question: What does the source list for `Cc1ccc(C(C)NC(=O)[C@@H](NC(=O)OC(C)C)C(C)C)cc1` (stereo partly drawn) [iprovalicarb (LI) (50), iprovalicarb]?
Answer: pest or weed control at 0.5 g/ha (Phytophthora infestans): 2%; pest or weed control at 2 g/ha (Sphaerotheca fuliginea): 0%

Question: `Cc1cc(C)nc(Nc2ccccc2)n1` [pyrimethanil (XLIX)(48), pyrimethanil] was tested. Which pest or weed control at 10 g/ha (Phytophthora infestans) did it give?
Answer: 11%

Question: What about the pest or weed control at 5 g/ha (Sphaerotheca fuliginea) of the same molecule?
Answer: 11%

Question: `O=[N+]([O-])/N=C1\NCCN1Cc1ccc(Cl)nc1` [imidacloprid (XXIV) (23), 1-[(6-chloro-3-pyridinyl)-methyl]-N-nitro-2-imidazolidinimine] was tested. Which pest or weed control at 12.5 g/ha [1] did it give?
Answer: 0%

Question: With `Cc1ccc(-c2c(Cl)nc(C#N)n2S(=O)(=O)N(C)C)cc1` [cyamidazosulfamid (LXX IV)(73), cyamidazosulfamid] as the molecule, how does the pest or weed control at 0.5 g/ha (Phytophthora infestans) read?
Answer: 45%

Question: And the pest or weed control at 1 g/ha (Sphaerotheca fuliginea)?
Answer: 0%

Question: For `CCC(C)(NC(=O)c1cc(Cl)c(C)c(Cl)c1)C(=O)CCl` (stereo not drawn) [zoxamide (LXXIII)(72), zoxamide], which pest or weed control at 1 g/ha (Phytophthora infestans) is on record?
Answer: 19%

Question: And the pest or weed control at 1 g/ha (Sphaerotheca fuliginea)?
Answer: 0%

Question: Which pest or weed control at 5 g/ha (Phytophthora infestans) does the source give for `CC(C)(C)C(O)C(Oc1ccc(Cl)cc1)n1cncn1` (stereo not drawn) [triadimenol (X) (9), 1-(4-chloro-phenoxy)-3,3-dimethyl-1-(1,2,4-triazol-1-yl)-butan-2-ol] here?
Answer: 0%

Question: What about the pest or weed control at 2.5 g/ha (Sphaerotheca fuliginea) of the same molecule?
Answer: 0%

Question: And the Efficacy in % (Pyrenophora teres)?
Answer: 30%

Question: What does the source list for `CCNC(=O)NC(=O)C(C#N)=NOC` [cymoxanil (XLVI) (45), cymoxanil]?
Answer: pest or weed control at 2.5 g/ha (Phytophthora infestans): 0%; pest or weed control at 5 g/ha (Sphaerotheca fuliginea): 15%

Question: With `Cc1noc(C)c1S(=O)(=O)n1c(Cl)nc2cc3c(cc21)OC(F)(F)O3` [Compound of the formula (LXXI) (70), 1-(3,5-dimethylisoxazole-4-sulphonyl)-2-chloro-6,6-difluoro-[1,3]-dioxolo-[4,5f]benzimidazole] as the molecule, how does the pest or weed control at 12.5 g/ha [1] read?
Answer: 0%

Question: And the pest or weed control at 1 g/ha (Sphaerotheca fuliginea)?
Answer: 0%

Question: What about the Efficacy in % (Leptosphaeria nodorum) of the same molecule?
Answer: 0%

Question: How did the Efficacy in % (Pyrenophora teres) turn out when `Fc1ccc(C2(Cn3cncn3)OC2c2ccccc2Cl)cc1` (stereo not drawn) [epoxiconazole (XI) (10), epoxiconazole] was run?
Answer: 60%

Question: What about the Efficacy in % [2] of the same molecule?
Answer: 70%

Question: Which pest or weed control at 2.5 g/ha (Phytophthora infestans) does the source give for `O=[N+]([O-])c1cc(C(F)(F)F)c(Cl)c([N+](=O)[O-])c1Nc1ncc(C(F)(F)F)cc1Cl` [fluazinam] here?
Answer: 32%

Question: And the pest or weed control at 2.5 g/ha (Sphaerotheca fuliginea)?
Answer: 0%

Question: With `CO/N=C(/C(=O)OC)c1ccccc1COc1ccccc1C` [kresoxim-methyl (XVI) (15), kresoxim-methyl] as the molecule, how does the pest or weed control at 1 g/ha (Phytophthora infestans) read?
Answer: 35%

Question: What about the pest or weed control at 2 g/ha (Sphaerotheca fuliginea) of the same molecule?
Answer: 0%

Question: Which pest or weed control at 12.5 g/ha [1] does the source give for `O=C(Nc1ccccc1)N(Cc1ccc(Cl)cc1)C1CCCC1` [pencycuron (XXXVIII) (37), pencycuron] here?
Answer: 50%

Question: And the pest or weed control at 10 g/ha (Phytophthora infestans)?
Answer: 14%

Question: What about the pest or weed control at 5 g/ha (Sphaerotheca fuliginea) of the same molecule?
Answer: 30%

Question: How did the Efficacy in % [2] turn out when `CC1(C)CCC(Cc2ccc(Cl)cc2)C1(O)Cn1cncn1` (stereo not drawn) [metconazole (XII) (11), metconazole] was run?
Answer: 50%

Question: For `S1SSSSSSS1` [sulphur (LXII) (62), sulphur], which pest or weed control at 25 g/ha (Phytophthora infestans) is on record?
Answer: 0%

Question: And the pest or weed control at 25 g/ha (Sphaerotheca fuliginea)?
Answer: 0%

Question: Which results are given for `CC(C)(C)C(O)(CCc1ccc(Cl)cc1)Cn1cncn1` (stereo not drawn) [tebuconazole (IV) (3), tebuconazole]?
Answer: pest or weed control at 2.5 g/ha (Sphaerotheca fuliginea): 0%; Efficacy in % (Pyrenophora teres): 0%; Efficacy in % (Leptosphaeria nodorum): 50%
